Results on one compound are retold here after ChEMBL document CHEMBL5143537, “Quinazoline-based hydroxamic acid derivatives as dual histone methylation and deacetylation inhibitors for potential anticancer agents” (Bioorg Med Chem, 2022).

In general, IC50 refers to the concentration needed to halve the response being measured.

For data set [1], the system named is HepG2. The data set is described as follows: Induction of apoptosis in human HepG2 cells assessed as early apoptotic cells at 1.25 uM measured after 48 hrs by Annexin V-FITC/propidium iodide staining based flow cytometry (reference value: 6.87%). It counts as functional. On the technique in general: A flow cytometer gives signals particle by particle.
In data set [2] the test system is HepG2. The data set is described as follows: Induction of apoptosis in human HepG2 cells assessed as increase in cleaved PARP expression at 1.25 to 20 uM measured after 48 hrs by Western blot analysis. It counts as functional, cell-based. The note with it: dose 1.25-20 µM. (In general: Immunoblotting shows a protein as a band on a membrane.)
Data set [3] can be described thus: Metabolic stability in rat liver microsomes assessed as parent compound remaining at 1 uM measured after 45 mins by LC-MS/MS analysis. Conditions: read-out: Stability. The format is ADME, Microsome.
Data set [4] deals with HepG2. The data set is described as follows: Cell cycle arrest in human HepG2 cells assessed as accumulation at G0/G1 phase at 5 uM measured after 48 hrs by propidium iodide staining based flow cytometry (reference value: 55.24%). It counts as functional.
The test system of data set [5] is HepG2. The data set is described as follows: Antiproliferative activity against human HepG2 cells measured after 72 hrs by MTT assay. The format is functional, cell-based. Conditions: HepG2, 72 h.
Data set [6] concerns HepG2. The data set is described as follows: Induction of apoptosis in human HepG2 cells assessed as late apoptotic cells at 20 uM measured after 48 hrs by Annexin V-FITC/propidium iodide staining based flow cytometry (reference value: 4.55%). It counts as functional.
The nature of data set [7]: Metabolic stability in rat liver microsomes assessed as parent compound remaining at 1 uM measured after 5 mins by LC-MS/MS analysis. It counts as ADME, Microsome. Conditions: read-out: Stability. On the technique in general: Liver microsomes are a subcellular fraction often used to study metabolism.
The nature of data set [8]: Effect on H3 expression in human HepG2 cells at 1.25 to 25 uM measured after 24 hrs by Western blot analysis. The note with it: hepg2, 24 h, dose 1.25-25 µM. The format is toxicity, cell-based.
Data set [9] has as its system HepG2. The data set is described as follows: Inhibition of colony formation in human HepG2 cells measured after 24 hrs. It counts as functional, cell-based. Conditions: dose 1.25-20 µM, DDE = dose-dependent effect.
The target of data set [10] is T1, Histone-lysine N-methyltransferase EHMT1 (Homo sapiens, UniProt Q9H9B1).
T1 sequence (Q9H9B1 whole entry): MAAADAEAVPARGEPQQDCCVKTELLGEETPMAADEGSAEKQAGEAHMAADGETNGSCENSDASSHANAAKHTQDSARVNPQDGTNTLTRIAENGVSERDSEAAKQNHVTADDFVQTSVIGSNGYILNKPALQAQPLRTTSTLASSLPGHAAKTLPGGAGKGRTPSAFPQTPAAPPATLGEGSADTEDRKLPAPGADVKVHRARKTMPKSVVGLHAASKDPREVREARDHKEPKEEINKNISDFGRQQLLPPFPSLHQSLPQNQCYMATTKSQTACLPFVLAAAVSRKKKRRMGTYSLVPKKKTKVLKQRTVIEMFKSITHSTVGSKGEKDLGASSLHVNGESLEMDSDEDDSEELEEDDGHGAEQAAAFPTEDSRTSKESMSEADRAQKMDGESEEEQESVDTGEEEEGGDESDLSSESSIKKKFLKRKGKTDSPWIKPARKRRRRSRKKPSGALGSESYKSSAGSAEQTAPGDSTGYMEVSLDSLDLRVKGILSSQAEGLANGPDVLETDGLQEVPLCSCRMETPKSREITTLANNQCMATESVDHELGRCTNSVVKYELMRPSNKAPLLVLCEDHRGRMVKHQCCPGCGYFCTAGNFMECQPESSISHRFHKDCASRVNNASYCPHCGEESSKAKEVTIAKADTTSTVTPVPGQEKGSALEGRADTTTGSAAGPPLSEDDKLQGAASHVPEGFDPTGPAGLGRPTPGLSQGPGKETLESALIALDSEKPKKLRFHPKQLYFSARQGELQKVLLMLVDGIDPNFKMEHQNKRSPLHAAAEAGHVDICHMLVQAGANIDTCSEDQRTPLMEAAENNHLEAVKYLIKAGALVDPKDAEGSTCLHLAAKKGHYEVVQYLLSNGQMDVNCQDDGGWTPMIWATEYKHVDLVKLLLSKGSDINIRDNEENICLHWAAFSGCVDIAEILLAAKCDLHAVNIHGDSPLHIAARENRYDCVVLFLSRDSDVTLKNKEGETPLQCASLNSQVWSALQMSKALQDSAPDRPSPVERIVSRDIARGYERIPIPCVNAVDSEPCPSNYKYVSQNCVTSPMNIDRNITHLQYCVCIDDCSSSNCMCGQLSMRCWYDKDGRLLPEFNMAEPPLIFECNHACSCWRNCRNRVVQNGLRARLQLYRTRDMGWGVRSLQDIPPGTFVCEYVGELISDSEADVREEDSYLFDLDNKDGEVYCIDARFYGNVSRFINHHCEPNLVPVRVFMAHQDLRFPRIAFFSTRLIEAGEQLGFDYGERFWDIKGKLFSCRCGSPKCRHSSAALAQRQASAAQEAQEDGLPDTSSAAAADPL
The data set is described as follows: Inhibition of GLP (unknown origin).

Data set [11] is described as follows: Metabolic stability in rat liver microsomes assessed as parent compound remaining at 1 uM measured after 15 mins by LC-MS/MS analysis. It counts as ADME, Microsome. Conditions: read-out: Stability.
A further data set has as its target Histone deacetylase 1 (Homo sapiens, UniProt Q13547). The data set is described as follows: Inhibition of recombinant human HDAC1 expressed in baculovirus infection system using Ac-peptide-AMC as substrate preincubated for 15 mins followed by substrate addition and measured after 60 mins by fluorescence assay.
In data set [12] the test system is HepG2. The data set is described as follows: Cell cycle arrest in human HepG2 cells assessed as accumulation at G0/G1 phase at 2.5 uM measured after 48 hrs by propidium iodide staining based flow cytometry (reference value: 55.24%). It counts as functional.
The nature of data set [13]: Intrinsic clearance in rat liver microsomes at 1 uM by LC-MS/MS analysis. It counts as ADME, Microsome. The note with it: read-out: CLH.
A short description of data set [14]: Metabolic stability in rat liver microsomes assessed as parent compound remaining at 1 uM measured after 30 mins by LC-MS/MS analysis. The format is ADME, Microsome. Conditions: read-out: Stability.
In data set [15] the test system is HepG2. The data set is described as follows: Cell cycle arrest in human HepG2 cells assessed as accumulation at G2/M phase at 10 uM measured after 48 hrs by propidium iodide staining based flow cytometry (reference value: 12.37%). The format is functional.
Data set [16] relates to HepG2. The data set is described as follows: Cell cycle arrest in human HepG2 cells assessed as accumulation at G2/M phase at 5 uM measured after 48 hrs by propidium iodide staining based flow cytometry (reference value: 12.37%). The format is functional.
The test system of data set [17] is HepG2. The data set is described as follows: Cell cycle arrest in human HepG2 cells assessed as accumulation at S phase at 5 uM measured after 48 hrs by propidium iodide staining based flow cytometry (reference value: 32.39%). It counts as functional.
The target of data set [18] is T2, Histone-lysine N-methyltransferase EHMT1 (Homo sapiens) (UniProt Q9H9B1).
T2 sequence (whole entry): T1 sequence (Q9H9B1 whole entry)
The data set is described as follows: Inhibition of GLP in human HepG2 cells assessed as reduction in H3K9Me2 expression at 1.25 to 20 uM measured after 24 hrs by Western blot analysis. It counts as cell-based. Conditions: dose 1.25-20 µM.

Data set [19] has as its system HepG2. The data set is described as follows: Cell cycle arrest in human HepG2 cells assessed as accumulation at S phase at 2.5 uM measured after 48 hrs by propidium iodide staining based flow cytometry (reference value: 32.39%). It counts as functional.
Data set [20] deals with HepG2. The data set is described as follows: Induction of apoptosis in human HepG2 cells assessed as early apoptotic cells at 20 uM measured after 48 hrs by Annexin V-FITC/propidium iodide staining based flow cytometry (reference value: 6.87%). It counts as functional.
The test system of data set [21] is HepG2. The data set is described as follows: Cell cycle arrest in human HepG2 cells assessed as increase in p21 expression measured after 24 hrs by Western blot analysis. The note with it: dose 1.25-20 µM, DDE = dose-dependent effect. It counts as functional, cell-based.
For data set [22], the system named is HepG2. The data set is described as follows: Induction of apoptosis in human HepG2 cells assessed as late apoptotic cells at 10 uM measured after 48 hrs by Annexin V-FITC/propidium iodide staining based flow cytometry (reference value: 4.55%). It counts as functional.

Active and inactive are the calls of the source. The rule behind the calls is not given here.

Chain of Histone deacetylase 1 (Q13547 whole entry): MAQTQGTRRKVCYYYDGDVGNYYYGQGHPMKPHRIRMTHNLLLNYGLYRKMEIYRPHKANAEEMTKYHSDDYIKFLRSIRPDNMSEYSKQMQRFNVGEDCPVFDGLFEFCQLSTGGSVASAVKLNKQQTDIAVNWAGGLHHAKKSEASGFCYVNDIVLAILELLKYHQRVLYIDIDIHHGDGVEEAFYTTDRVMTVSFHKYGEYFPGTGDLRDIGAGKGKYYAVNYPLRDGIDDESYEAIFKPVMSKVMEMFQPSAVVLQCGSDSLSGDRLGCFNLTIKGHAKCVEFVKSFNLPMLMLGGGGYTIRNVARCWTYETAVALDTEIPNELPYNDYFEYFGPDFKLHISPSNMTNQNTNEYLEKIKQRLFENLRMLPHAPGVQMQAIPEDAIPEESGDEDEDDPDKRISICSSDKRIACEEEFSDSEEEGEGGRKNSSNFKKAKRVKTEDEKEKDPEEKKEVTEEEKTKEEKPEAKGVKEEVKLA

Take `COc1cc2nc(N3CCN(CCCCCC(=O)NO)CC3)nc(NC3CCN(Cc4ccccc4)CC3)c2cc1OC`: the Activity in the data set with HepG2 [1] is 8.83%; in the data set with HepG2 [4], 58.07%; in the data set on HepG2 [6], 17.12%; in data set [8] it was “Non-Toxic”; in the data set with HepG2 [12], 57.88%; in the data set with HepG2 [15], 15.52%. Besides, the Activity is 13.12% with HepG2 [16]; 28.81% with HepG2 [17]; 28.84% in the data set with HepG2 [19]; 49.75% in the data set with HepG2 [20]; “Dde” with HepG2 [21]; 6.17% in the data set on HepG2 [22]. In the data set with HepG2 [2], the result was Active. Moreover, in data set [3], the remaining at 0.75 h, 1 µM worked out at 14.2%. Moreover, the figures for the IC50 (in the data set on HepG2 [5]; in [10]; at Histone deacetylase 1) were 2740 nM, 1.3 nM and 89 nM, respectively. The remaining at 5 min, 1 µM in data set [7] stood at 81.1%. Besides, the inhibition entry with HepG2 [9] is “Dde”. For the same compound, the remaining at 0.25 h, 1 µM in data set [11] is 50.2%. Further, the CLint scaled at 1 µM in data set [13] was determined as 155 mL/min/kg. In addition, the remaining at 0.5 h, 1 µM in data set [14] was found to be 26.8%. The inhibition entry in [18] is “Active”.
